Data: publication PMC12025681, “Repositioning Fluoxetine as a TRPV3 Channel Inhibitor to Alleviate Skin Inflammation and Pruritus” (Current Issues in Molecular Biology, 2025)

Columns and labels:
[1] = target: T1, human TRPV3 (hTRPV3) (Homo sapiens, UniProt Q8NET8); test: whole-cell patch clamp and inside-out single-channel recording in transfected HEK293T cells (2-APB-evoked currents); assay type: cell-based
T1 sequence (Q8NET8 1-790): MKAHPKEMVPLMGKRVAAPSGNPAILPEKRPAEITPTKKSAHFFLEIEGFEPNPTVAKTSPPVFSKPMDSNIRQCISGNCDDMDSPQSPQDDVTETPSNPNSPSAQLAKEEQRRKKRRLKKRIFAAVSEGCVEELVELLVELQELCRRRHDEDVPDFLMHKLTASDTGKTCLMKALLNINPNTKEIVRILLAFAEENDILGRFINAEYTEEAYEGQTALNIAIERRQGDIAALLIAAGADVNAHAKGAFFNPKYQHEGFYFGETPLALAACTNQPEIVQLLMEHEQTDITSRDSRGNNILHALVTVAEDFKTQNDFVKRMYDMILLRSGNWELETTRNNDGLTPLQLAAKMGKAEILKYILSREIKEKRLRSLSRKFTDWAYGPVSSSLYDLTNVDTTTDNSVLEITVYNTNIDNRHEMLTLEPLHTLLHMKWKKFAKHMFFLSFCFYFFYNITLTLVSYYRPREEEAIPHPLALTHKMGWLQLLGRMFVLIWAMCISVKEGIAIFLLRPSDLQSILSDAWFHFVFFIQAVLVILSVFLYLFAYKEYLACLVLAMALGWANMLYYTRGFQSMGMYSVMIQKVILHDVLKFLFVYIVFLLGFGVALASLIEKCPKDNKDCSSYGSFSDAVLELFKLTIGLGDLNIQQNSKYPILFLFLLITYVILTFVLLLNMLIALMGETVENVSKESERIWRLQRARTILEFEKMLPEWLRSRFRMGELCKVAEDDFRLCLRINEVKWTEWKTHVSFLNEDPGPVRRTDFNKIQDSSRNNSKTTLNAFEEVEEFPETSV

[2] = target: TRPM8 (hTRPM8) (Homo sapiens, UniProt Q7Z2W7); test: whole-cell patch clamp in transfected HEK293T cells (menthol-evoked currents); assay type: cell-based
TRPM8 (hTRPM8), sequence (Q7Z2W7 whole entry): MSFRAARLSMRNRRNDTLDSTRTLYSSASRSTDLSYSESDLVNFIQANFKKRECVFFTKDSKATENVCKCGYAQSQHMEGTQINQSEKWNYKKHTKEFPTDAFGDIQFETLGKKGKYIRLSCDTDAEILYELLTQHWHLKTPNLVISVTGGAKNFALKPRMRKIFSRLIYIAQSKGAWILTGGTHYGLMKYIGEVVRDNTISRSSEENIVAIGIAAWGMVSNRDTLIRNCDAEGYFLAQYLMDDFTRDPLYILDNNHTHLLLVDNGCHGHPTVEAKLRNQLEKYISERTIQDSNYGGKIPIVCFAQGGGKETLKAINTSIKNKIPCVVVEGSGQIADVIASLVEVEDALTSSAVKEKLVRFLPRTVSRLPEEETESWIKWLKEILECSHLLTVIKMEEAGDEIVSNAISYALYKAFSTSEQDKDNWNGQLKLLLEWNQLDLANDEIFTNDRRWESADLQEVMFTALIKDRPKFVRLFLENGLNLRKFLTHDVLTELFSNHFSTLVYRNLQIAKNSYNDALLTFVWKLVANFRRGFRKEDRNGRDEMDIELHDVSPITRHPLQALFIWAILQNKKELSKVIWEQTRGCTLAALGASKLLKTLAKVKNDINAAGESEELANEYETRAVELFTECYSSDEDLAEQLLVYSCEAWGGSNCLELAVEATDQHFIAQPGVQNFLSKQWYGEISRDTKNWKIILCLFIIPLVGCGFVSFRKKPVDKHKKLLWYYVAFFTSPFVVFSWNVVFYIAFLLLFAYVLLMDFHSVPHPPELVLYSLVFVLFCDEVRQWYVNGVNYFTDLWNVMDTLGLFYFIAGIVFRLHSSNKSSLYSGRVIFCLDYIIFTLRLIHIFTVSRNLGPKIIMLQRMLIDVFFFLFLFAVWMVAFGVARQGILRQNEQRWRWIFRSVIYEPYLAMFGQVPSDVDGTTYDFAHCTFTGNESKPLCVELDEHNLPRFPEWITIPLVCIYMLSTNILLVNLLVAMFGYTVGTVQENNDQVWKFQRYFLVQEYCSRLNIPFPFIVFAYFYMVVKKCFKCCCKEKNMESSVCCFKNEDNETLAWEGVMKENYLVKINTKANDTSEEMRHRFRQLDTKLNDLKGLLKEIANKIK

**Q.** What does the source list for `CNCCC(Oc1ccc(C(F)(F)F)cc1)c1ccccc1` (centres unmarked) [FLX, Fluoxetine]?
**A.** IC50 [1]: 10.2 ± 2.34 µM; IC50 [2]: 20 ± 3.3 µM
